The source of these data is patent publication US20220142995A1, “DUAL ATM AND DNA-PK INHIBITORS FOR USE IN ANTI-TUMOR THERAPY” (XRAD Therapeutics, Inc., priority 2019, published 2022).

Series [1] has as its system pKAP1/KAP1 in MDA-231 tumors. In words: Pharmacodynamic assay, pKAP1/KAP1 in MDA-231 tumors. In kind it is in vivo, mice. The text has this:
(§1) Tumor Studies. Female NCr nu/nu mice (Crl:NU(NCr)-Foxn1 nu, Strain 490) were obtained from Charles River at 5-6 weeks of age. All animal procedures used in these studies were approved by the Institutional Animal Care and Use Committee (IACUC) at Duke University.
(§2) FADU or MDA-MB-231 cells were harvested during log phase growth for in vivo implantation. The resuspended cells were washed three times in phosphate buffered saline (PBS) before preparing the working dilution in PBS. FADU cells were diluted to 1×10^7 cells/mL and MDA-MB-231 cells were diluted to 5×10^7 cells/mL. Each mouse was injected subcutaneously in the right flank with 100 μL of the cellular suspension. Tumor growth was monitored until the tumors reached a target volume of at least 100 mm^3, at which point mice were randomly stratified into four treatment groups.
(§3) The vehicle used in this study was 0.5% (Hydroxypropyl)methyl cellulose (HPMC) and 0.2% Tween80 dissolved in deionized water. The pH of the vehicle was adjusted to 7.0-8.0 and the vehicle was stored at 4° C. On each day of in vivo treatment an appropriate mass of test compound was added to the vehicle at room temperature. The mixture was vortexed as necessary to generate a final concentration of 1.6 mg/mL.
(§4) Pharmacodynamic (PD) assays. Tumor studies were performed as follows. Mice bearing FADU or MDA-231 tumors were pre-dosed with vehicle alone or compound 569 alone at 3, 6, and 10 mg/kg. Tumors were then irradiated with 10 Gy 45 min after vehicle or compound 569 administration or left unirradiated (vehicle and compound 569 at 10 mg/kg). Tumors were harvested 1 h post radiation.
(§5) Tissue homogenates for pharmacodynamic analyses were collected and processed as follows. Tumor tissues from FADU or MDA-MB-231 tumors were flash frozen in liquid nitrogen and pulverized on dry ice using a tissue pulverizer. A portion of the tumor powder was transferred into a microtube, followed by addition of 500 μL of RIPA buffer [[…], pH 8.0, 150 mM NaCl, 0.1% SDS, 0.5% sodium deoxycholate, 1% IGEPAL® CA-630 (Sigma, 18896)]. To 10 ml of RIPA buffer, 2 tablets each of Protease inhibitor and Phosphatase inhibitor (Roche, #04693159001 & #04906837001), 200 μL of 0.1 M PMSF and 160 μL of Aprotinin, (Sigma, A6279) were added. The suspension was homogenized on ice with a pellet pestle motor (KONTES) and incubated on ice for 30 minutes. Cell lysates were centrifuged at 13,200 rpm for 15 min at 4° C. and supernatants were transferred to a new tube and analyzed for protein concentration with a BCA kit (Pierce, 23227), followed by immunoblotting.

The subject of series [2] is pKAP1/KAP1 in FADU tumors. The experiment in a line: Pharmacodynamic assay, pKAP1/KAP1 in FADU tumors. It counts as in vivo, mice. The following applies: for pKAP1/KAP1: FADU tumors.
Description: as §1, §2, §3, §4, §5

The test system of series [3] is pDNA-PK/DNA-PK in MDA-231 tumors. In words: Pharmacodynamic assay, pDNA-PK/DNA-PK in MDA-231 tumors. In kind it is in vivo, mice.
Description: as §1, §2, §3, §4, §5

Series [4] concerns MDA-MB-231 subcutaneous human xenograft. The experiment in a line: In vivo tumor growth delay study, MDA-MB-231 subcutaneous human xenograft mouse model.
Description: as §1, §2
Following implantation of the tumor cell lines, mice were monitored once weekly for tumor development. Upon detection, tumors were measured in two dimensions using digital calipers. Tumors were treated after reaching at least 100 mm^3 and were measured two to three times weekly following enrollment in one of the treatment groups. The study endpoint was defined as tumor quintupling from the volume at time of treatment.
as §3
In vivo tumor growth delay study was performed as follows. Following implantation of the tumor cell lines, mice were monitored once weekly for tumor development. Upon development of a tumor measuring at least 100 mm^3, tumor-bearing mice were stratified to one of 4 groups, utilizing 5 mice per group. Tumor volumes were between 100 and 500 mm^3. Vehicle or compound 569 (10 mg/kg) were administered by oral gavage once daily for three consecutive days (qd×3), alone or in combination with focal radiation. The delivered volume of vehicle or compound 569 was adjusted based on body weight of the individual animals. […]
Statistical and Graphical Analysis of the in vivo data. […] In order to adjust for the differing tumor sizes at the start of treatment, the relative tumor volume was calculated by dividing the tumor volume at each time point by the volume at baseline. […] When an animal exited the study due to tumor quintupling, the final tumor volume recorded for the animal was included with the data used to calculate the median volume at subsequent time points. […]

The mark [5] stands for this setting: 10 Gy, 3 mg/kg oral, harvested 1 h post radiation.
Setting [6] is: 10 Gy, 6 mg/kg oral, harvested 1 h post radiation.
Setting [7] is: 10 Gy, 10 mg/kg oral, harvested 1 h post radiation.

`CC(C)NCCOc1ncc(-c2cc3c4c(cnc3cc2F)N(C)C(=O)C42CCC2)cc1NS(C)(=O)=O` [Compound 569, N-(5-(7′-Fluoro-3′-methyl-2′-oxo-2′,3′-dihydrospiro[cyclobutane-1,1′-pyrrolo[2,3-c]quinolin]-8′-yl)-2-(2-(isopropylamino)ethoxy)pyridin-3-yl)methanesulfonamide]: the pKAP1/KAP1 is given as 0.327 in series [1] (setting [5]); 0.0130 in series [1] (setting [6]); 0.00901 in series [1] (setting [7]); −0.00319 in series [1] (no radiation, 10 mg/kg oral); 0.0903 in series [2] (setting [5]); 0.0982 in series [2] (setting [6]). In addition, the pKAP1/KAP1 in series [2] (setting [7]) is reported as 0.156; in series [2] (no radiation, 10 mg/kg oral), 0.00595. Further, the inhibition at 10 mg/kg in series [2] (Mus musculus, FADU and MDA231 tumors (FIGS. 4 and 5, Tables 2-5), 10 Gy, 10 mg/kg, read-out: inhibition of tumor levels of radiation-induced phosphorylation of KAP1) was more than 80%. Moreover, the pDNA-PK/DNA-PK in series [3] (setting [5]) turned out to be 0.889; in series [3] (setting [6]), 0.670; in series [3] (setting [7]), 0.454; in series [3] (no radiation, 10 mg/kg oral), 0.223. Also, the “tumor growth curves and quintupling-free survival” value in series [4] (MDA-MB-231, Group 2 (10 mg/kg qd×3 alone) versus Group 1 (vehicle)) is on record as “nearly identical to those for Group 1”. The “overall survival compared to Group 1, Group 2 and Group 3” value in series [4] (MDA-MB-231, Group 4: 10 mg/kg + 3 Gy qd×3, P<0.01, logrank) is recorded as “significantly improved”. In series [4] (MDA-MB-231, Group 4: 10 mg/kg + 3 Gy qd×3, unknown causes), the animals found dead result is “One animal was found dead on Day 35”. For the same compound, the tolerability entry in series [4] (MDA-MB-231-bearing mice, 10 mg/kg qd×3 alone or with 3 Gy) is recorded as “well-tolerated”.
